According to US20250296953A1, “3,4-THIAZOLO-STEROIDS AND METHODS OF MAKING AND USING THE SAME” (Arkansas State University - Jonesboro, priority 2018, published 2025):
pIC50: −log10 of the molar value.

Legend:
LOX IMVI = assay: Melanoma cytotoxicity assay (resazurin); type: cell-based; settings: Homo sapiens; LOX IMVI melanoma cells
In short: (§1)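 Following 24 h of compound treatment (triplicates, 37° C, 5% CO2) of cells seeded one day earlier at about 4000 per well, viability was gauged with resazurin. IC50 values derive from sigmoidal concentration–viability curves.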

SK-MEL-25 = assay: Melanoma cytotoxicity assay (resazurin); type: cell-based; settings: for SK-MEL-25 (% viability): human, 24 h
In short: as §1

SK-MEL-28 = assay: Melanoma cytotoxicity assay (resazurin); type: cell-based; settings: for SK-MEL-28 (% viability): human, 24 h
In short: as §1

SK-MEL-5 = assay: Melanoma cytotoxicity assay (resazurin); type: cell-based; settings: for SK-MEL-5 (% viability): human, 24 h
In short: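 Viability read by resazurin fluorescence (ex 544, em 590 nm) after 6 h, following 24 h compound exposure of cells plated 24 h earlier (~4000/well). Triplicate means, minus medium blank, divided by DMSO control; IC50 derived from sigmoidal dose-response curves.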

HFF-1 = assay: Cytotoxicity assay (resazurin); type: cell-based; settings: Homo sapiens; HFF-1 cells; read-out: HFF-1 (IC50)
MALME-3M = assay: Melanoma cytotoxicity assay (resazurin); type: cell-based; settings: human, 24 h
Procedure: On day 1, the cell line trypsinized and centrifuged to form cell pellet. The pellet was diluted in media, then counted using Countess automated cell counter. Approximately 4000 cells (198 uL) per well plated in […]. A control well of 200 uL growth media was also prepared. Wells closest to plate perimeter were filled with 200 uL PBS to prevent inner well evaporation. The 96 well plates are incubated in 37° C. incubator at 5% CO2 for 24 hours.
On day 2, compounds were added (in triplicate) along with DMSO/Dacarbazine controls (2 uL) added to bring wells to volume of 200 μL. The 96 well plates are incubated in 37° C. incubator at 5% CO2 for 24 hours.
On day 3, 40 μL of 0.15 mg/ml reszurin solution added to wells. Samples were placed in a 37° C. incubator at 5% CO2 for 6 hours. Excitation and emission for fluorescence measured at 544 nm and 590 nm using BMG Labtech Fluostar Optima plate reader
Percent viability determined by taking average of each triplicate well fluorescence and subtracting GM well reading to remove the background signal. This difference is then divided by the average of the negative control (DMSO) wells to determine percent viability.
IC50s were determined by using cereal dilution of compound to determine viability. Viabilities and concentration of cells are analyzed in Graphpad Prism by creating sigmoidal curve graph, which will determine the IC50 concentration.
We analyzed the ability of the thiazole-androstane derivatives to inhibit growth in various melanoma cell lines. The growth inhibition against melanoma cell lines of various compound is shown below in Tables 19 and 20. Inhibition results are reported as the IC50 concentration in μM of the indicated compound or as the percent viability […] of the indicated compound. NA=not available.

[1] = test system: 60 different human tumor cell lines; assay: NCI Development Therapeutics Program 60 cell line screen, one dose; type: cell-based
NCI-H522 (NSCLC) = assay: NCI 60 one dose screen; type: cell-based, human; settings: Non-small Cell Lung Cancer
HCT-15 (Colon Cancer) = assay: NCI 60 one dose screen; type: cell-based, human
SF-295 = assay: NCI 60 one dose screen; type: cell-based, human; settings: one dose; CNS Cancer; SF-295
SF-539 = assay: NCI 60 one dose screen; type: cell-based, human; settings: one dose; CNS Cancer; SF-539

Structure (SMILES): C[C@]12CC[C@H]3[C@@H](CC=C4c5sc(Nc6ccccn6)nc5CC[C@@]43C)[C@@H]1CC[C@@H]2O [IIIa.24, (1S,2R,13R,14S,17S,18S)-2,18-dimethyl-7-(2-pyridylamino)-8-thia-6-azapentacyclo[11.7.0.02,10.05,9.014,18]icosa-5(9),6,10-trien-17-ol]
- pIC50 (LOX IMVI): < 4.70
- SK-MEL-25 (% viability) (SK-MEL-25): 1.76%
- SK-MEL-28 (% viability) (SK-MEL-28): 1.50%
- SK-MEL-5 (% viability) (SK-MEL-5): 2.25%
- pIC50 (HFF-1): < 4.70
- MALME-3M (% viability) (MALME-3M): 10.69%

Structure (SMILES): CN(c1ccccc1)c1nc2c(s1)CC[C@@]1(C)C2=CC[C@@H]2[C@@H]1CC[C@]1(C)C(=O)CC[C@@H]21 [IIa.6, (1S,2R,13R,14S,18S)-2,18-dimethyl-7-(N-methylanilino)-6-thia-8-azapentacyclo[11.7.0.02,10.05,9.014,18]icosa-5(9),7,10-trien-17-one]
- Growth Percent ([1]; Breast Cancer, BT-549): 45.19%
- Growth Percent ([1]; Breast Cancer, HS 578T): 54.53%
- Growth Percent ([1]; Breast Cancer, MCF7): 32.55%
- Growth Percent ([1]; Breast Cancer, MDA-MB-231/ATCC): 68.22%
- Growth Percent ([1]; Breast Cancer, MDA-MB-468): 29.56%
- Growth Percent ([1]; Breast Cancer, T-47D): 65.84%
- Growth Percent ([1]; CNS Cancer, SF-268): 73.87%
- Growth Percent ([1]; CNS Cancer, SNB-19): 54.72%
- Growth Percent ([1]; CNS Cancer, SNB-75): 73.17%
- Growth Percent ([1]; CNS Cancer, U251): 36.99%
- Growth Percent ([1]; Colon Cancer, COLO 205): 48.79%
- Growth Percent ([1]; Colon Cancer, HCC-2998): 82.14%
- Growth Percent ([1]; Colon Cancer, HCT-116): 32.71%
- Growth Percent ([1]; Colon Cancer, HT29): 10.25%
- Growth Percent ([1]; Colon Cancer, KM12): 33.11%
- Growth Percent ([1]; Colon Cancer, SW-620): 44.14%
- Growth Percent ([1]; Leukemia, CCRF-CEM): 44.17%
- Growth Percent ([1]; Leukemia, HL-60(TB)): 44.55%
- Growth Percent ([1]; Leukemia, MOLT-4): 45.63%
- Growth Percent ([1]; Leukemia, RPMI-8226): 48.36%
- Growth Percent ([1]; Leukemia, SR): 31.74%
- Growth Percent ([1]; Melanoma, LOX IMVI): 66.30%
- Growth Percent ([1]; Melanoma, M14): 41.12%
- Growth Percent ([1]; Melanoma, MALME-3M): 55.43%
- Growth Percent ([1]; Melanoma, MDA-MB-435): 2.34%
- Growth Percent ([1]; Melanoma, SK-MEL-2): 49.76%
- Growth Percent ([1]; Melanoma, SK-MEL-5): 32.53%
- Growth Percent ([1]; Melanoma, SK-MEL-28): 72.19%
- Growth Percent ([1]; Melanoma, UACC-62): 38.23%
- Growth Percent ([1]; Melanoma, UACC-257): 67.13%
- Growth Percent ([1]; Non-small Cell Lung Cancer, A549/ATCC): 47.72%
- Growth Percent ([1]; Non-small Cell Lung Cancer, EKVX): 78.34%
- Growth Percent ([1]; Non-small Cell Lung Cancer, HOP-62): 70.07%
- Growth Percent ([1]; Non-small Cell Lung Cancer, HOP-92): 78.79%
- Growth Percent ([1]; Non-small Cell Lung Cancer, NCI-H23): 79.64%
- Growth Percent ([1]; Non-small Cell Lung Cancer, NCI-H226): 83.39%
- Growth Percent ([1]; Non-small Cell Lung Cancer, NCI-H322M): 89.66%
- Growth Percent ([1]; Non-small Cell Lung Cancer, NCI-H460): 38.69%
- Growth Percent ([1]; Ovarian Cancer, IGROV1): 67.27%
- Growth Percent ([1]; Ovarian Cancer, NCI/ADR-RES): 43.96%
- Growth Percent ([1]; Ovarian Cancer, OVCAR-3): 36.20%
- Growth Percent ([1]; Ovarian Cancer, OVCAR-4): 83.97%
- Growth Percent ([1]; Ovarian Cancer, OVCAR-5): 98.72%
- Growth Percent ([1]; Ovarian Cancer, OVCAR-8): 76.81%
- Growth Percent ([1]; Ovarian Cancer, SK-OV-3): 79.14%
- Growth Percent ([1]; Prostate Cancer, DU-145): 79.22%
- Growth Percent ([1]; Prostate Cancer, PC-3): 71.01%
- Growth Percent ([1]; Renal Cancer, 786-0): 58.79%
- Growth Percent ([1]; Renal Cancer, A498): 50.67%
- Growth Percent ([1]; Renal Cancer, ACHN): 93.66%
- Growth Percent ([1]; Renal Cancer, CAKI-1): 61.11%
- Growth Percent ([1]; Renal Cancer, RXF 393): 79.66%
- Growth Percent ([1]; Renal Cancer, SN12C): 77.26%
- Growth Percent ([1]; Renal Cancer, TK-10): 91.08%
- Growth Percent ([1]; Renal Cancer, UO-31): 79.34%
- SK-MEL-25 (% inhibition) (SK-MEL-25; SK-MEL-25 melanoma cells, 24 hours with compound, resazurin, concentration not given): 60%
- SK-MEL-28 (% inhibition) (SK-MEL-28; SK-MEL-28 melanoma cells, 24 hours with compound, resazurin, concentration not given): 60%
- SK-MEL-5 (% inhibition) (SK-MEL-5; SK-MEL-5 melanoma cells, 24 hours with compound, resazurin, concentration not given): 63%
- Growth Percent (NCI-H522 (NSCLC)): 8.26%
- Growth Percent (HCT-15 (Colon Cancer)): 35.23%
- Growth Percent (SF-295): 42.68%
- Growth Percent (SF-539): 51.35%

Structure (SMILES): C[C@]12CC[C@H]3[C@@H](CC=C4c5sc(Nc6ccc(F)cc6F)nc5CC[C@@]43C)[C@@H]1CC[C@@H]2O [IIIa.13, (1S,2R,13R,14S,17S,18S)-7-(2,4-difluoroanilino)-2,18-dimethyl-8-thia-6-azapentacyclo[11.7.0.02,10.05,9.014,18]icosa-5(9),6,10-trien-17-ol]
- pIC50 (LOX IMVI): 5.19
- pIC50 (SK-MEL-25; Homo sapiens, SK-MEL-25 melanoma cells (head prints SK-25), read-out: SK-25 IC50): 5.10
- SK-MEL-25 (% viability) (SK-MEL-25): 8.72%
- pIC50 (SK-MEL-28; Homo sapiens, SK-MEL-28 melanoma cells): 4.96
- SK-MEL-28 (% viability) (SK-MEL-28): 3.92%
- SK-MEL-5 (% viability) (SK-MEL-5): 4.9%
- pIC50 (HFF-1): 4.60
- MALME-3M (% viability) (MALME-3M): 20.83%
